Patent publication US20210330686A1, “COMPOSITION CONTAINING 2'-FUCOSYLLACTOSE FOR PREVENTING STROKE” (Advanced Protein Technologies Corp., priority 2018, published 2021)

Tests used:
[1] = test system: brain injury induced by middle cerebral artery occlusion (MCAO); experiment: Behavioral test: spontaneous exercise of stroke-induced animals (MCAO model); type: in vivo, Sprague-Dawley rats
[2] = test system: brain injury induced by middle cerebral artery occlusion (MCAO); experiment: TTC staining of stroke-induced brain (MCAO model) after oral pre-administration; type: in vivo, Sprague-Dawley rats

For 2′-fucosyllactose [2′-FL], the “exercise amount 2 days after stroke induction (D2)” value ([1]; oral 300 mg/kg for 3 days before MCAO) was “significantly increase”, the “exercise amount 2 days after stroke induction (D2)” value ([1]; oral 400 mg/kg for 3 days before MCAO) was “no statistically significant increase in exercise” and the “total exercise amount 2 days after stroke induction (D2)” value ([1]; oral pre-administration for 3 days, all doses) was “found to increase the total exercise amount”. For the same substance, the “brain damage compared to the control group not administered” value ([2]; experimental group administered with 2'-fucosyllactose) was “significantly suppressed” and the “brain damage suppression (TTC staining)” value ([2]; oral pre-administration 0-7 weeks, 200, 300, 400 mg/kg, before MCAO) was “the longer the 2′-FL pre-administration period and the higher the dose, the better the effect on brain damage suppression”.
